The test deals with USP7 (Homo sapiens (Human), UniProt Q93009). Description: USP7 fluorescence polarisation (FP) assay with ubiquitin-Lys-TAMRA substrate. The format is biochemical. To be noted: biochemical inhibition.
Setting [1] is: read-out: USP7 IC50 activity (Table 3a, classes).
[2] abbreviates: unit not given in Table 3b (Table 1 and key of Table 3a use μM), read-out: USP7 IC50 activity (Table 3b).

Molecules are shown by their SMILES. Like-named read-outs stand apart in the source and are kept apart here.

Sequence of USP7 (Q93009 whole entry): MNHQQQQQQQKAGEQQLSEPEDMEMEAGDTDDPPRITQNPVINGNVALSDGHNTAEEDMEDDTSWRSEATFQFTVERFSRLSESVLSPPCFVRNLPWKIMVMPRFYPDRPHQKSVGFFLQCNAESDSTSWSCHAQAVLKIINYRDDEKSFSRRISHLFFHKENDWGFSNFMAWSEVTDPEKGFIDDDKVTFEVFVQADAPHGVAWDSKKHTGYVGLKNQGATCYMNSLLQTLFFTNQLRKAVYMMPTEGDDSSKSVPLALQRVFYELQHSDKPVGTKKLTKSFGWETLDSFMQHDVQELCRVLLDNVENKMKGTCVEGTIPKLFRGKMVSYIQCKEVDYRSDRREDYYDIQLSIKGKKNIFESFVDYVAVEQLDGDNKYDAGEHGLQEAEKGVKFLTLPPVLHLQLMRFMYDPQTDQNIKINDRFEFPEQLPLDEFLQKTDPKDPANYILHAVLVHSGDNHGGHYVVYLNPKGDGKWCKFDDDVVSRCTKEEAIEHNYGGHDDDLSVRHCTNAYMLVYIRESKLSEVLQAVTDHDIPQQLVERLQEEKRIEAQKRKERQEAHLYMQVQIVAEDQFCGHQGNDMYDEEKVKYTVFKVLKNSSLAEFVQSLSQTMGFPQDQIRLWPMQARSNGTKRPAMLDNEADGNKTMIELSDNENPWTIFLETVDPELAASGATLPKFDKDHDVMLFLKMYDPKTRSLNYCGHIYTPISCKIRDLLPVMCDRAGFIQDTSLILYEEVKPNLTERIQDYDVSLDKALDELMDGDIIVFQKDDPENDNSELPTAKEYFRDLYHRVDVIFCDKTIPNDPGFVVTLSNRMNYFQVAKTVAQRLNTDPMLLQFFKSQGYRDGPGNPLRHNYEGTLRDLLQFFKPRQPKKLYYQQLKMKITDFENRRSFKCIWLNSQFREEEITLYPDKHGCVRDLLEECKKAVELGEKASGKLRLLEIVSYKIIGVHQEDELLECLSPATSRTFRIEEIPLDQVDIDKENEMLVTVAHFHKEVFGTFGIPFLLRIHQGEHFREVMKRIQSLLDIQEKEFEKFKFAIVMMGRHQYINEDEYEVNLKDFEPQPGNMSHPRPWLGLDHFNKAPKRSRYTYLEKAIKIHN

Regarding `C[C@@]1(C(=O)N2CCC(O)(Cn3cnc4c(cc(Cl)n4-c4ccc([C@H]5COCCN5)cc4)c3=O)CC2)C[C@H]1C(F)(F)F` (single isomer, unassigned) [Example 110, 6-Chloro-3-((4-hydroxy-1-((1R,2R)-1-methyl-2-(trifluoromethyl)cyclopropane-1-carbonyl)piperidin-4-yl)methyl)-7-(4-((S)-morpholin-3-yl)phenyl)-3,7-dihydro-4H-pyrrolo[2,3-d]pyrimidin-4-one or 6-chloro-3-((4-hydroxy-1-((1R,2R)-1-methyl-2-(trifluoromethyl)cyclopropane-1-carbonyl)piperidin-4-yl)methyl)-7-(4-((R)-morpholin-3-yl)phenyl)-3,7-dihydro-4H-pyrrolo[2,3-d]pyrimidin-4-one], the IC50 is less than 0.1 µM under setting [1] and 0.079 µM under setting [2].

On to `C[C@H]1CN[C@H](c2ccc(-n3c(Cl)cc4c(=O)n(CC5(O)CCN(C(=O)c6ccc(Cl)cc6)CC5)cnc43)cc2)CO1` [Example 4, 6-Chloro-3-((1-(4-chlorobenzoyl)-4-hydroxypiperidin-4-yl)methyl)-7-(4-((3R,6S)-6-methylmorpholin-3-yl)phenyl)-3,7-dihydro-4H-pyrrolo[2,3-d]pyrimidin-4-one], for which the IC50 is, setting by setting: under setting [1], 0.1 to 0.25 µM; under setting [2], 0.222 µM.

For `C[C@H]1CN[C@H](c2ccc(-n3c(Cl)cc4c(=O)n(CC5(O)CCN(C(=O)C(C6CC6)C6CC6)CC5)cnc43)cc2)CO1` [Example 99, 6-Chloro-3-((1-(2,2-dicyclopropylacetyl)-4-hydroxypiperidin-4-yl)methyl)-7-(4-((3R,6S)-6-methylmorpholin-3-yl)phenyl)-3,7-dihydro-4H-pyrrolo[2,3-d]pyrimidin-4-one], the IC50 is, setting by setting: under setting [1], 0.25 to 2 µM; under setting [2], 0.263 µM.

As for `C[C@@H]1CN[C@@H](c2ccc(-n3c(Cl)cc4c(=O)n(CC5(O)CCN(C(=O)c6ccc(F)cc6)CC5)cnc43)cc2)CO1` [Example 25, 6-Chloro-3-((1-(4-fluorobenzoyl)-4-hydroxypiperidin-4-yl)methyl)-7-(4-((3S,6R)-6-methylmorpholin-3-yl)phenyl)-3,7-dihydro-4H-pyrrolo[2,3-d]pyrimidin-4-one], the IC50 under setting [1] was in the range of 0.1 to 0.25 µM and the 50% inhibitory concentration (IC50) under setting [2] is 0.147 µM.

Regarding `C[C@H]1CN[C@H](c2ccc(-n3c(Cl)cc4c(=O)n(CC5(O)CCN(C(=O)c6ccc(F)cc6F)CC5)cnc43)cc2)CO1` [Example 22, 6-Chloro-3-((1-(2,4-difluorobenzoyl)-4-hydroxypiperidin-4-yl)methyl)-7-(4-((3R,6S)-6-methylmorpholin-3-yl)phenyl)-3,7-dihydro-4H-pyrrolo[2,3-d]pyrimidin-4-one], the IC50 under setting [1] lay within 0.1 to 0.25 µM and the IC50 under setting [2] was 0.222 µM.

Turning to `Cc1cc(-n2c(Cl)cc3c(=O)n(CC4(O)CCN(C(=O)c5ccc(F)cc5)CC4)cnc32)ccc1[C@H]1CO[C@H](C)CN1` [Example 47, 6-Chloro-3-((1-(4-fluorobenzoyl)-4-hydroxypiperidin-4-yl)methyl)-7-(3-methyl-4-((3S,6R)-6-methylmorpholin-3-yl)phenyl)-3,7-dihydro-4H-pyrrolo[2,3-d]pyrimidin-4-one], the half-maximal inhibitory concentration (IC50) is less than 0.1 µM under setting [1] and 0.091 µM under setting [2].

As for `C[C@H]1CN[C@H](c2ccc(-n3c(Cl)cc4c(=O)n(CC5(O)CCN(C(=O)c6ccc(Cl)cc6F)CC5)cnc43)cc2)CO1` [Example 30, 6-Chloro-3-((1-(4-chloro-2-fluorobenzoyl)-4-hydroxypiperidin-4-yl)methyl)-7-(4-((3R,6S)-6-methylmorpholin-3-yl)phenyl)-3,7-dihydro-4H-pyrrolo[2,3-d]pyrimidin-4-one], the half-maximal inhibitory concentration (IC50) by setting is: under setting [1], 0.1 to 0.25 µM; under setting [2], 0.164 µM.

Consider `CC[C@H]1CN[C@H](c2ccc(-n3c(Cl)cc4c(=O)n(CC5(O)CCN(C(=O)C6(C)CC6)CC5)cnc43)cc2)CO1` [Example 106, 6-Chloro-7-(4-((3R,6S)-6-ethylmorpholin-3-yl)phenyl)-3-((4-hydroxy-1-(1-methylcyclopropane-1-carbonyl)piperidin-4-yl)methyl)-3,7-dihydro-4H-pyrrolo[2,3-d]pyrimidin-4-one], for which the concentration for half-maximal inhibition (IC50) under setting [1] is 0.1 to 0.25 µM and the concentration for half-maximal inhibition (IC50) under setting [2] was 0.121 µM.

`CC1(C)CN[C@H](c2ccc(-n3c(Cl)cc4c(=O)n(CC5(O)CCN(C(=O)c6ccc(F)cc6)CC5)cnc43)cc2)CO1` (single isomer, unassigned) [Example 29]: the 50% inhibitory concentration (IC50) reads like this: under setting [1], 0.1 to 0.25 µM; under setting [2], 0.118 µM.

Consider `CC1(C(=O)N2CCC(O)(Cn3cnc4c(cc(Cl)n4-c4ccc([C@H]5COCCN5)cc4)c3=O)CC2)CC1` (single isomer, unassigned) [Example 70], for which the 50% inhibitory concentration (IC50) by setting is: under setting [1], less than 0.1 µM; under setting [2], 0.022 µM.

Regarding `Cc1cc(Cl)ccc1C(=O)N1CCC(O)(Cn2cnc3c(cc(Cl)n3-c3ccc([C@H]4CO[C@H](C)CN4)c(C)c3)c2=O)CC1` [Example 89, 6-Chloro-3-((1-(4-chloro-2-methylbenzoyl)-4-hydroxypiperidin-4-yl)methyl)-7-(3-methyl-4-((3S,6R)-6-methylmorpholin-3-yl)phenyl)-3,7-dihydro-4H-pyrrolo[2,3-d]pyrimidin-4-one], the IC50 by setting is: under setting [1], 0.1 to 0.25 µM; under setting [2], 0.204 µM.

On to `C[C@H]1CN[C@H](c2ccc(-n3c(Cl)cc4c(=O)n(CC5(O)CCN(C(=O)[C@@]6(C)C[C@@H]6C(F)(F)F)CC5)cnc43)cc2)CO1` (single isomer, unassigned) [Example 33, 6-Chloro-3-((4-hydroxy-1-((1R,2R)-1-methyl-2-(trifluoromethyl)cyclopropane-1-carbonyl)piperidin-4-yl)methyl)-7-(4-((3R,6S)-6-methylmorpholin-3-yl)phenyl)-3,7-dihydro-4H-pyrrolo[2,3-d]pyrimidin-4-one or 6-chloro-3-((4-hydroxy-1-((1S,2S)-1-methyl-2-(trifluoromethyl)cyclopropane-1-carbonyl)piperidin-4-yl)methyl)-7-(4-((3R,6S)-6-methylmorpholin-3-yl)phenyl)-3,7-dihydro-4H-pyrrolo[2,3-d]pyrimidin-4-one], for which the concentration for half-maximal inhibition (IC50) under setting [1] lay in the range of 0.1 to 0.25 µM and the IC50 under setting [2] worked out at 0.226 µM.

As to `Cc1cc(Cl)ccc1C(=O)N1CCC(O)(Cn2cnc3c(cc(Cl)n3-c3ccc([C@@H]4CO[C@@H](C)CN4)cc3)c2=O)CC1` [Example 90, 6-Chloro-3-((1-(4-chloro-2-methylbenzoyl)-4-hydroxypiperidin-4-yl)methyl)-7-(4-((3R,6S)-6-methylmorpholin-3-yl)phenyl)-3,7-dihydro-4H-pyrrolo[2,3-d]pyrimidin-4-one], the 50% inhibitory concentration (IC50) was 0.25 to 2 µM under setting [1] and 0.293 µM under setting [2].

With `C[C@H]1CN[C@H](c2ccc(-n3c(Cl)cc4c(=O)n(CC5(O)CCN(C(=O)c6ccccc6F)CC5)cnc43)cc2)CO1` [Example 36, 6-Chloro-3-((1-(2-fluorobenzoyl)-4-hydroxypiperidin-4-yl)methyl)-7-(4-((3R,6S)-6-methylmorpholin-3-yl)phenyl)-3,7-dihydro-4H-pyrrolo[2,3-d]pyrimidin-4-one], the IC50 under setting [1] lay within 0.25 to 2 µM and the half-inhibitory concentration (IC50) under setting [2] is 0.511 µM.

On to `C[C@H]1CN[C@H](c2ccc(-n3c(Cl)cc4c(=O)n(CC5(O)CCN(C(=O)C6(C7CC7)CC6)CC5)cnc43)cc2)CO1` [Example 42, 3-((1-([1,1′-Bi(cyclopropane)]-1-carbonyl)-4-hydroxypiperidin-4-yl)methyl)-6-chloro-7-(4-((3R,6S)-6-methylmorpholin-3-yl)phenyl)-3,7-dihydro-4H-pyrrolo[2,3-d]pyrimidin-4-one], for which the IC50 was less than 0.1 µM under setting [1] and 0.091 µM under setting [2].

The values above are taken from US20250122223A1, “HETEROCYCLIC COMPOUNDS AS UBIQUITIN SPECIFIC PROTEASE 7 INHIBITORS” (ALMAC DISCOVERY LIMITED, priority 2022, published 2025).
